According to the supplement of paper PMC11208160:

Assay: recombinant UMI read abundance after kanamycin selection (control-corrected) (log10(CPM+1)); higher = more efficient recombination; extreme values may be limits of the assay; sequences stand for … in AGTGCAGAGAAAATCGGCCAGTTTTCTCTGCCTGCAGTCCGCATGCCGTGGGACCCCTTGGGTTCTAACCTGTTGCCTAGATTTATGCAGCGGACTGCCTTTCTCCCAAAGTGATAAACCGG…AGGTTGGTTTCACT; site = the 11-nt donor
Method in brief: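 In a pooled Escherichia coli screen for the IS621 bridge recombinase, donor and donor-binding-loop pairs were each placed with a 12-nt UMI on a plasmid bearing a promoterless kanamycin gene. This library was co-electroporated with a target plasmid encoding a fixed target and T7-inducible recombinase, and cells were plated either on IPTG (0.07 mM) plus kanamycin or without selection, in two replicates each. Recombinant UMIs were PCR-amplified across the donor–target junction and sequenced, and counts were converted to CPM, averaged over replicates, scaled by control-derived factors and reported as log10(CPM+1).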
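Note: IS621 bridge recombinase in Escherichia coli cells against a fixed T5 target plasmid.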

Sequence | recombinant UMI read abundance (log10)
TCCTCCGCATGGACCGGTTTTCCCGGTAATCCGTATTTGCG (site TCCCCCGCTCG) | 0.0138
TCCTCCGCATGGACCGGTTTTCCCGGTAATCCGTATTTGCG (site TCCGCCGCTCG) | 0
TCCTCCGCATGGACCGGTTTTCCCGGTAATCCGTATTTGCG (site TCCTCCGCTCG) | 0.0201
TCCTCCTCATGGACCGGTTTTCCCGGTAATCCGTATTTGCC (site TCCTCCTCTGG) | 0
TCCTTGACATGGACCGGTTTTCCCGGTAATCCGTATTTGCT (site TACTTGACTAG) | 0.397
TCCTTGACATGGACCGGTTTTCCCGGTAATCCGTATTTGCT (site TCCTTGACTAG) | 0
TCCTTGACATGGACCGGTTTTCCCGGTAATCCGTATTTGCT (site TGCTTGACTAG) | 0
TCCTTGACATGGACCGGTTTTCCCGGTAATCCGTATTTGCT (site TTCTTGACTAG) | 0
TCGAAGCCATGGACCGGTTTTCCCGGTAATCCGTATTTGGG (site ACGAAGCCTCC) | 0.0545
TCGAAGCCATGGACCGGTTTTCCCGGTAATCCGTATTTGGG (site CCGAAGCCTCC) | 0.0131
TCGAAGCCATGGACCGGTTTTCCCGGTAATCCGTATTTGGG (site GCGAAGCCTCC) | 0.0961
TCGAAGCCATGGACCGGTTTTCCCGGTAATCCGTATTTGGG (site TCGAAGCCTCC) | 0.0129
TCGAATACATGGACCGGTTTTCCCGGTAATCCGTATTTGAG (site TCGAATACTCT) | 1.44
TCGACAGCATGGACCGGTTTTCCCGGTAATCCGTATTTGTA (site TCGACAGCTTA) | 1.02
TCGACATCATGGACCGGTTTTCCCGGTAATCCGTATTTGCG (site TCGACATCTCG) | 0.266
TCGACCGCATGGACCGGTTTTCCCGGTAATCCGTATTTGCG (site TCAACCGCTCG) | 0.00755

Sequence | recombinant UMI read abundance (log10)
TCGACCGCATGGACCGGTTTTCCCGGTAATCCGTATTTGCG (site TCCACCGCTCG) | 0
TCGACCGCATGGACCGGTTTTCCCGGTAATCCGTATTTGCG (site TCGACCGCTCG) | 0.0218
TCGACCGCATGGACCGGTTTTCCCGGTAATCCGTATTTGCG (site TCTACCGCTCG) | 0.0287
TCGACCTCATGGACCGGTTTTCCCGGTAATCCGTATTTGGA (site TCGACCTCTTC) | 0.524
TCGAGAGCATGGACCGGTTTTCCCGGTAATCCGTATTTGGC (site TCGAGAGCTGC) | 1.86
TCGCACACATGGACCGGTTTTCCCGGTAATCCGTATTTGGG (site TCGCACACTCC) | 0.0145
TCGCAGACATGGACCGGTTTTCCCGGTAATCCGTATTTGCG (site TCGCAGACTCG) | 0.0105
TCGCAGCCATGGACCGGTTTTCCCGGTAATCCGTATTTGCT (site TCGCAGCCTAG) | 0
TCGCCATCATGGACCGGTTTTCCCGGTAATCCGTATTTGGC (site GAAGGCCCTAG) | 0
TCGCGTACATGGACCGGTTTTCCCGGTAATCCGTATTTGGG (site TCGCGTACTCC) | 0.0193
TCGCTAGCATGGACCGGTTTTCCCGGTAATCCGTATTTGCT (site TCGCTAGCTAG) | 0
TCGCTCTCATGGACCGGTTTTCCCGGTAATCCGTATTTGGC (site TCGCTCTCTGC) | 0
TCGCTGACATGGACCGGTTTTCCCGGTAATCCGTATTTGTA (site TCGCTGACTTA) | 1.3
TCGGACCCATGGACCGGTTTTCCCGGTAATCCGTATTTGGG (site TCGGACCCTCC) | 0.036
TCGGACCCATGGACCGGTTTTCCCGGTAATCCGTATTTGTT (site TCGGACCCTAA) | 0.013
TCGGTAGCATGGACCGGTTTTCCCGGTAATCCGTATTTGTG (site TCGGTAGCTCA) | 0.629
